According to US20210228500A1, “CELLULAR RETINOID BINDING PROTEIN ANTAGONISTS AND USES THEREOF” (CASE WESTERN RESRVE UNIVERSITY, priority 2018, published 2021):

Tests used:
[1] = Detection and quantification of abn-CBD in the ocular tissues; format: in vivo, Balb/cJ mice; details: single dose 15 mg kg^−1 i.p.
Method: Balb/cJ mice were i.p. injected with 15 mg kg^−1 dose of abn-CBD. At the time points between 1 and 15 h, they were deeply anesthetized by ketamine/xylazine injection and perfused with PBS. Perfused eyes were collected and homogenized in 1 mL of PBS/methanol (v/v). During the homogenization, 100 pmol of an internal standard (3d-abn-CBD) was added. The samples were extracted with 4 mL of hexane and centrifuged at 15,000 g for […] at 4° C. The organic solvent was transferred to glass test tubes and dried in a Savant speedvac concentrator (Thermo Fisher Scientific). The extracted compounds were dissolved in 0.3 mL of ethanol and subjected to LC/MS analysis and quantification as described above.

cannabinoid receptor 2 = cannabinoid receptor 2 (Homo sapiens, UniProt P34972); details: cited from earlier work
Chain of cannabinoid receptor 2 (P34972 whole entry): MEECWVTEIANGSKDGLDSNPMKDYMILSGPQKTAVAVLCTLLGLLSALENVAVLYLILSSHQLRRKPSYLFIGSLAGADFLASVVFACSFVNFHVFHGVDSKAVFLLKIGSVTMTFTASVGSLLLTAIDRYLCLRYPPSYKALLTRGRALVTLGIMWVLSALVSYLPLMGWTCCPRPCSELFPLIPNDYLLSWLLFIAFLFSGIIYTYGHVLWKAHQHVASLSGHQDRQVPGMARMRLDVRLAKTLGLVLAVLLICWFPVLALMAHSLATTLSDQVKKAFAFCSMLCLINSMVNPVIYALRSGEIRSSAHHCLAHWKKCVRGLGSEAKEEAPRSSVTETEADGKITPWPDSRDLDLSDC

CRBP4 = target: T1, CRBP4 (Homo sapiens, UniProt Q96R05); assay: Crystal structure of CRBP4 in complex with abn-CBD; format: binding; details: crystal structure PDB No. 6E6K
T1 construct: thrombin cut site (residual residues after digestion) (C); 6x histidine tag (C, cleaved yes); made in house; host or cells: E. coli BL21 (DE3) (as for CRBP2)
T1 sequence (Q96R05 1-134): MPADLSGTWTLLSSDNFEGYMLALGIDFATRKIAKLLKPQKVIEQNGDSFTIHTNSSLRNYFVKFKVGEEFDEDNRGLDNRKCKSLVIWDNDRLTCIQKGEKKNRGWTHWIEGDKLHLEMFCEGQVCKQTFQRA
Description: The cDNA of human CRBP4 was purchased from Origene Technologies. The introduction of a thrombin cut site at the C-terminus was achieved by PCR amplification of the cDNA. The PCR product was subcloned into pET30b vector. For the most part, CRBP4 was expressed and purified as described for CRBP2. However, after digestion with thrombin and reloading onto HisTrap column, the unbound fraction of the protein was further purified on a HiTrap SP HP ion exchanger column (GE Healthcare). CRBP4 was loaded in 10 mM Tris/HCl buffer, pH 8.0 buffer, and subsequently eluted with a gradient of NaCl (0-0.5 M) over 30 min at a flow rate 1.0 mL min^−1. Purified CRBP4 was concentrated to 6 mg mL^−1 and liquated at −80° C.
Crystals of CRBP1 in complex abn-CBD and its derivatives (abn-CBDO or CBDO) were grown essentially as described by Silvaroli et al (ACS Chem Biol. 2019, 15; 14(3)). The apo protein at 3 mg mL-1 was preincubated with 300 μM of a ligand in 10 mM Tris-HCl buffer, pH 8.0, 150 mM NaCl for 15 min on ice. This sample (1 μL) was mixed in 1:1 ratio with a crystallization solution composed of 0.1 M BisTris, pH 5.5, and 25% poly(ethylene glycol) (PEG) 3350 (w/v). […]

[2] = tested on: visual cycle retinoids in mouse eye; assay: Photobleaching and visual chromophore regeneration, ocular retinoid analysis; format: in vivo, Balb/cJ mice; details: 0.25 mg 1.5 h prior to flash of light bleaching 75% of rhodopsin
Method: Balb/cJ mice were dark adapted for at least 24 h before the experiment. […] After the light exposure, the mice were kept in dark and euthanized at time intervals between 1 min to 8 h. The eyes were removed, flash frozen in liquid nitrogen, and stored in −80° C. until retinoid analysis.
All procedures related to the retinoid analysis were done under dim red light. To extract retinoids, enucleated eyes were transferred to a glass/glass homogenizer and submerged in 1 mL of 40 mM hydroxylamine in a 1:1 solution of PBS/methanol (v/v). The eyes were thoroughly homogenized and incubated at RT for 20 min to allow derivatization of retinylaldehydes to retinaldehdye oximes. The retinoids were extracted with 4 mL of hexane. To facilitate the fraction separation, the samples were centrifuged at 5000 g for 10 min, after which the upper organic phase was collected in a glass test tube. The organic solvent was dried in a rotary SpeedVac, and the residual retinoids were redissolved in […] of hexanes, and subjected to HPLC analysis. Separation of retinoids was achieved on a normal phase column (Agilent Zorbax Sil 5 μm 4.6×250 mm) in a step gradient of ethyl acetate in hexane (1% for 10 min followed by 10% for 40 min at a constant flow rate of 1.5 mL min^−1). Elution of retinoids was monitored at 325 and 360 nm wavelengths. All-trans-retinyl esters, all-trans- and 11-cis-retinaldehdye oximes as well as atROL were identified based on their elution times and characteristic UV/vis spectra. Retinoids were quantified based on linear correlations between the amount of injected synthetic standards and the area under chromatographic peaks.
Next, we examined the impact of abn-CBD on vitamin A metabolism in vivo. For this purpose, we analyzed the flow of retinoids via the visual cycle during the regeneration of visual chromophore after exposure to bright light. […] The light intensity was set up to cause photoisomerization in 75% of rhodopsin as indicated by the decrease in the amount of 11-cis-retinal measured immediately after the light exposure (FIG. 7). […]

C=C(C)[C@@H]1CCC(C)=C[C@H]1c1c(O)cc(O)cc1CCCCC [abn-CBD, 4-[(1R,6R)-3-Methyl-6-prop-1-en-2-ylcyclohex-2-en-1-yl]-5-pentylbenzene-1,3-diol]
half-life ([1]; Balb/cJ, mouse, eye (PBS-perfused, homogenate), ip): ~7 h
time of maximum ocular level after the injection [1]: 2 h
ocular level, maximum value ([1]; PBS-perfused eyes): 58 pmol/eye
interaction with cannabinoid receptor 2 (cannabinoid receptor 2): does not interact
binding to CRBP4 (CRBP4): bind abn-CBD similarly to CRBP1
atROL level during chromophore regeneration [2]: transient accumulation of atROL
rate of 11-cis-retinaldehyde regeneration [2]: noticeably slower
rate of all-trans-retinaldehyde clearance vs control [2]: no differences
